Literature values as cited in PMC9329312, “Decoding kinase-adverse event associations for small molecule kinase inhibitors” (Nature Communications, 2022).

Conditions: ref FAERS

CCOc1cc2ncc(C#N)c(Nc3ccc(OCc4ccccn4)c(Cl)c3)c2cc1NC(=O)/C=C/CN(C)C [neratinib]
Abdominal discomfort, % of Cases: 4.8%
Abdominal distension, % of Cases: 3.4%
Abdominal neoplasm, % of Cases: 0.075%
Abdominal pain lower, % of Cases: 0.075%
Abdominal pain upper, % of Cases: 6.0%
Abdominal pain, % of Cases: 6.2%
Abdominal tenderness, % of Cases: 0.15%
Abnormal faeces, % of Cases: 0.15%
Abscess, % of Cases: 0.15%
Accidental overdose, % of Cases: 0.15%
Acne, % of Cases: 1.5%
Acute kidney injury, % of Cases: 0.6%
Acute respiratory failure, % of Cases: 0.075%
Adrenal mass, % of Cases: 0.075%
Adrenocortical insufficiency acute, % of Cases: 0.075%
Adverse drug reaction, % of Cases: 2.6%
Adverse event, % of Cases: 0.075%
Ageusia, % of Cases: 0.225%
Alanine aminotransferase increased, % of Cases: 0.6%
Alopecia, % of Cases: 0.5%
Amenorrhoea, % of Cases: 0.075%
Amnesia, % of Cases: 0.15%
Anaemia, % of Cases: 0.6%
Anal cancer metastatic, % of Cases: 0.075%
Anal fissure, % of Cases: 0.075%
Anal incontinence, % of Cases: 0.075%
Anal inflammation, % of Cases: 0.075%
Anger, % of Cases: 0.075%
Animal bite, % of Cases: 0.075%
Animal scratch, % of Cases: 0.075%
Anxiety, % of Cases: 0.9%
Aphasia, % of Cases: 0.075%
Aphonia, % of Cases: 0.225%
Aphthous ulcer, % of Cases: 0.075%
Aplastic anaemia, % of Cases: 0.075%
Appendicitis perforated, % of Cases: 0.075%
Appendicitis, % of Cases: 0.15%
Appetite disorder, % of Cases: 0.15%
Arthralgia, % of Cases: 2.4%
Arthritis, % of Cases: 0.375%
Ascites, % of Cases: 0.225%
Aspartate aminotransferase increased, % of Cases: 0.3%
Aspergillus infection, % of Cases: 0.075%
Asthenia, % of Cases: 4.1%
Asthenopia, % of Cases: 0.075%
Asthma, % of Cases: 0.15%
Astigmatism, % of Cases: 0.075%
Atrial fibrillation, % of Cases: 0.075%
Back pain, % of Cases: 0.9%
Bacterial infection, % of Cases: 0.075%
Balance disorder, % of Cases: 0.225%
Biliary cirrhosis, % of Cases: 0.075%
Bladder dilatation, % of Cases: 0.075%
Bladder spasm, % of Cases: 0.225%
Blister, % of Cases: 0.15%
Blood alkaline phosphatase increased, % of Cases: 0.15%
Blood bilirubin increased, % of Cases: 0.15%
Blood calcium decreased, % of Cases: 0.075%
Blood creatinine abnormal, % of Cases: 0.075%
Blood creatinine increased, % of Cases: 0.8%
Blood electrolytes decreased, % of Cases: 0.15%
Blood glucose decreased, % of Cases: 0.225%
Blood glucose fluctuation, % of Cases: 0.075%
Blood glucose increased, % of Cases: 0.075%
Blood iron decreased, % of Cases: 0.225%
Blood magnesium decreased, % of Cases: 0.3%
Blood potassium decreased, % of Cases: 1.7%
Blood pressure abnormal, % of Cases: 0.075%
Blood pressure decreased, % of Cases: 0.225%
Blood pressure increased, % of Cases: 0.6%
Blood sodium decreased, % of Cases: 0.15%
Blood urea increased, % of Cases: 0.3%
Blood urea nitrogen/creatinine ratio increased, % of Cases: 0.075%
Blood urine present, % of Cases: 0.15%
Bone cancer, % of Cases: 0.075%
Bone pain, % of Cases: 0.75%
Bowel movement irregularity, % of Cases: 0.075%
Brain cancer metastatic, % of Cases: 0.15%
Brain natriuretic peptide increased, % of Cases: 0.075%
Brain neoplasm malignant, % of Cases: 0.075%
Brain neoplasm, % of Cases: 0.3%
Brain oedema, % of Cases: 0.075%
Brain operation, % of Cases: 0.15%
Breast calcifications, % of Cases: 0.075%
Breast cancer metastatic, % of Cases: 2.3%
Breast cancer stage IV, % of Cases: 0.45%
Breast cancer, % of Cases: 0.15%
Breast cellulitis, % of Cases: 0.15%
Breast disorder, % of Cases: 0.075%
Breast haemorrhage, % of Cases: 0.075%
Breast pain, % of Cases: 0.15%
Breast reconstruction, % of Cases: 0.375%
Breast swelling, % of Cases: 0.075%
Brief resolved unexplained event, % of Cases: 0.075%
Bronchitis, % of Cases: 0.075%
Bundle branch block left, % of Cases: 0.075%
Burning sensation, % of Cases: 0.3%
COVID-19, % of Cases: 0.15%
Cachexia, % of Cases: 0.075%
Cancer pain, % of Cases: 0.075%
Candida infection, % of Cases: 0.15%
Carbohydrate antigen 15-3 increased, % of Cases: 0.075%
Cardiac disorder, % of Cases: 0.075%
Cardiac failure congestive, % of Cases: 0.225%
Cardiac operation, % of Cases: 0.075%
Cardio-respiratory arrest, % of Cases: 0.075%
Catatonia, % of Cases: 0.075%
Cellulitis staphylococcal, % of Cases: 0.075%
Cellulitis, % of Cases: 0.15%
Central nervous system haemorrhage, % of Cases: 0.075%
Central venous catheter removal, % of Cases: 0.075%
Central venous catheterisation, % of Cases: 0.075%
Cerebral cyst, % of Cases: 0.075%
Cerebrovascular accident, % of Cases: 0.3%
Chapped lips, % of Cases: 0.075%
Chest discomfort, % of Cases: 0.15%
Chest pain, % of Cases: 0.6%
Chest wall tumour, % of Cases: 0.075%
Chills, % of Cases: 0.5%
Cholangiocarcinoma, % of Cases: 0.075%
Cholecystectomy, % of Cases: 0.075%
Cholecystitis, % of Cases: 0.075%
Cholelithiasis, % of Cases: 0.15%
Chromaturia, % of Cases: 0.15%
Chronic fatigue syndrome, % of Cases: 0.075%
Chronic hepatic failure, % of Cases: 0.075%
Clostridium difficile colitis, % of Cases: 0.075%
Clostridium difficile infection, % of Cases: 0.225%
Coagulopathy, % of Cases: 0.075%
Cognitive disorder, % of Cases: 0.15%
Colectomy, % of Cases: 0.075%
Colitis ulcerative, % of Cases: 0.075%
Colitis, % of Cases: 0.3%
Colon cancer, % of Cases: 0.15%
Coma, % of Cases: 0.075%
Completed suicide, % of Cases: 0.075%
Condition aggravated, % of Cases: 0.075%
Confusional state, % of Cases: 0.8%
Conjunctivitis, % of Cases: 0.075%
Constipation, % of Cases: 15.5%
Contusion, % of Cases: 0.225%
Cough, % of Cases: 1.4%
Critical illness, % of Cases: 0.075%
Cyst, % of Cases: 0.075%
Cystitis, % of Cases: 0.375%
Deafness bilateral, % of Cases: 0.075%
Death, % of Cases: 9.6%
Decreased appetite, % of Cases: 11.9%
Deep vein thrombosis, % of Cases: 0.075%
Dehydration, % of Cases: 6.6%
Dementia, % of Cases: 0.075%
Dental operation, % of Cases: 0.075%
Depressed mood, % of Cases: 0.3%
Depression, % of Cases: 0.75%
Dermatitis acneiform, % of Cases: 0.6%
Dermatitis contact, % of Cases: 0.075%
Device related infection, % of Cases: 0.225%
Diabetic ketoacidosis, % of Cases: 0.075%
Diarrhoea haemorrhagic, % of Cases: 0.225%
Diarrhoea, % of Cases: 61.8%
Diplegia, % of Cases: 0.075%
Diplopia, % of Cases: 0.075%
Discomfort, % of Cases: 0.075%
Disease progression, % of Cases: 1.7%
Disorientation, % of Cases: 0.075%
Disturbance in attention, % of Cases: 0.075%
Diverticulitis, % of Cases: 0.225%
Dizziness, % of Cases: 4.6%
Drug eruption, % of Cases: 0.075%
Drug hypersensitivity, % of Cases: 0.075%
Drug ineffective, % of Cases: 0.45%
Drug interaction, % of Cases: 0.075%
Drug intolerance, % of Cases: 1.0%
